{"source": "patent US20180311238A1", "about": "“Selective Agonist Of a6 Containing nAChRs” (Saniona A/S, priority 2017, published 2018)", "test_system": "reserpine-induced tremors", "experiment": "Reserpine-induced tremors in rats (tremor monitor power spectra)", "assay_type": "in vivo, rat", "settings": "for effect on reserpine-induced tremors in pilot studies: rats, L-DOPA with benserazide", "from_the_text": "Parkinson's disease is associated with severe dopamine deficiency caused by neurodegeneration of dopaminergic cell bodies residing in Substantia Nigra pars compacta. As alpha6 nAChRs are enriched in the nigrostriatal dopamine pathway, activating this receptor may ameliorate symptoms in nigro-striatal dopamine deficiency models. Reserpine injections to rodents result in depletion of monoamines in the nigro-striatal dopamine pathway, resulting in catalepsy and tremors. Both behaviours can be quantified using dedicated tremor boxes.\nSix groups of male Sprague Dawley rats (250-300 grams) were subjected to the following treatment schedules, and effects on power spectra, assessed in automated tremor monitors were evaluated for 30 minutes: • Vehicle+vehicle • Vehicle+reserpine (1 mg/kg) • 9-Methyl-3-pyridin-3-yl-3,9-diaza-bicyclo[3.3.1]nonane (0.1 mg/kg)+reserpine (1 mg/kg) • 9-Methyl-3-pyridin-3-yl-3,9-diaza-bicyclo[3.3.1]nonane (1.0 mg/kg)+reserpine (1 mg/kg) • L-DOPA (100 mg/kg)+reserpine (1 mg/kg) • 9-Methyl-3-pyridin-3-yl-3,9-diaza-bicyclo[3.3.1]nonane (1.0 mg/kg)+L-DOPA (100 mg/kg)+reserpine (1 mg/kg)\nReserpine was pre-treated i.v. 60 minutes prior to test start in a dose volume of 2 ml/kg. 9-Methyl-3-pyridin-3-yl-3,9-diaza-bicyclo[3.3.1]nonane was pre-treated s.c. 45 minutes prior to test start in a dose volume of 1 ml/kg. The dose of 9-methyl-3-pyridin-3-yl-3,9-diaza-bicyclo[3.3.1]nonane was based on 3H-epibatidin displacement studies showing half maximal displacement of specific binding of 3H-epibatidin in doses equaling 0.15 mg/kg in rats. L-DOPA was pre-treated i.p. 30 minutes prior to test start in a dose volume of 5 ml/kg. […] All animals dosed with L-DOPA was also dosed with the peripherally acting decarboxylase inhibitor Benserazide to prevent the peripheral break down of L-DOPA (benserazide: 50 mg/kg, s.c., 30 min. prior to test start in a dose volume of 1 ml/kg).", "key": {"[1]": {"settings": "reserpine 1 mg/kg i.v., compound 0.1 and 1.0 mg/kg s.c., L-DOPA 100 mg/kg i.p. + benserazide"}}}
{"smiles": "N[C@@H](Cc1ccc(O)c(O)c1)C(=O)O", "note": "[L-DOPA]", "values": [{"measurement": "activity per se of the L-DOPA dose in pilot studies", "setting": "pilot studies, L-DOPA 100 mg/kg i.p.", "value": "marginal activity per se"}, {"measurement": "effect on reserpine-induced tremors in pilot studies", "setting": "pilot studies", "value": "reverse reserpine-induced tremors"}, {"measurement": "effect on reserpine-induced tremors, AUC 20-43 Hz", "setting": "reserpine 1 mg/kg i.v., L-DOPA 100 mg/kg i.p. + benserazide", "value": "without exerting any effects"}, {"measurement": "effect on reserpine-induced tremors, AUC 40-63 Hz", "setting": "[1]", "value": "reduces reserpine-induced tremors"}, {"measurement": "reversal of reserpine-induced reduction of low frequency movements (catalepsy), AUC 3-13 Hz", "setting": "[1]", "value": "Neither threshold dose of L-DOPA, nor 9-methyl-3-pyridin-3-yl-3,9-diaza-bicyclo[3.3.1]nonane or the combination of the two, was able to reverse this reduction"}]}
{"smiles": "CN1CCc2cccc3c2[C@H]1Cc1ccc(O)c(O)c1-3", "note": "[apomorphine]", "values": [{"measurement": "effect on reserpine-induced tremors in pilot studies", "setting": "pilot studies", "value": "reverse reserpine-induced tremors"}]}
